Data taken from PMC6140472 (Proceedings of the National Academy of Sciences of the …, 2018).

Target: T1, MhFPPS (MhIDS-2), full-length (Murgantia histrionica, UniProt A0A343W970)
T1 sequence (A0A343W970 1-405): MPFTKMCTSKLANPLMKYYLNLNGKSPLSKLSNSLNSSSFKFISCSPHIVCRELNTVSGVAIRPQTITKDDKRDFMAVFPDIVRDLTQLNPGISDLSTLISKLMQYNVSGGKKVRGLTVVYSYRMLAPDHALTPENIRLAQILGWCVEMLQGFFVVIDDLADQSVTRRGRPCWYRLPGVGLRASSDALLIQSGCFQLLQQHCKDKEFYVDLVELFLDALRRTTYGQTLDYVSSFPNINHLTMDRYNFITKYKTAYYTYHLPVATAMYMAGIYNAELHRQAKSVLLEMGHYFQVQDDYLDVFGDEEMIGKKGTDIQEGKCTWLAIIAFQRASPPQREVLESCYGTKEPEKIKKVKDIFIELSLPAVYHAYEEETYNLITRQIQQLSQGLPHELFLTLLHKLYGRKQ
Test: LC-MS/MS product assay
Format: biochemical

Structure (SMILES)	LC-MS/MS product assay (co-substrate IPP)	LC-MS/MS product assay (co-substrate DMAPP)
CC(C)=CCOP(=O)(O)OP(=O)(O)O [DMAPP]	MhIDS-2 produced (E,E)-FPP from IPP and DMAPP	–
C=C(C)CCOP(=O)(O)OP(=O)(O)O [IPP]	–	MhIDS-2 produced (E,E)-FPP from IPP and DMAPP
